The results in this text go back to PubChem BioAssay (NCI).

Each structure is given as a SMILES string.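 48-hour exposure; five concentrations; linearly interpolated endpoints. Abbreviation: GI50, concentration required for 50% inhibition of growth. At the TGI there is no net growth.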

Test systems include A549 NSCLC; LXFL 529 NSCLC; SNB-19 CNS; IGROV1 ovarian; U251 CNS; OVCAR-3 ovarian; UACC-257 melanoma; KM20L2 colon; NCI/ADR-RES ovarian; PC-3 prostate.
Test in all cases: growth of human tumour cells (NCI), 48 h

As for `C[C@]12CCC3[C@@H](C[C@H]4OC(=O)[C@@]35CCC(=O)C=C45)C1CCC2=O` (stereo not given in full), the TGI in the experiment with A549 NSCLC, in the experiment with LXFL 529 NSCLC, in the experiment on SNB-19 CNS, in the experiment with IGROV1 ovarian, in the experiment with U251 CNS and in the experiment on OVCAR-3 ovarian was > 100 µM in each case. The TGI in the experiment on UACC-257 melanoma was > 100 µM.

For the compound `CN(C)c1ccccc1CC(c1c[nH]c2ccccc12)c1c[nH]c2ccccc12`, the TGI in the experiment on KM20L2 colon was determined as 22.6 µM; with A549 NSCLC it was 22.2 µM; in the experiment on SNB-19 CNS it was 27.8 µM; in the experiment with IGROV1 ovarian, 30.9 µM; in the experiment with U251 CNS, 24.7 µM; in the experiment with OVCAR-3 ovarian it was 25.6 µM. In addition, the TGI in the experiment on UACC-257 melanoma amounted to 31.8 µM.

`O=C1C(c2ccc([N+](=O)[O-])cc2)=[N+]([O-])c2ccccc21`: the TGI was > 100 µM in the experiment on A549 NSCLC; > 100 µM in the experiment on LXFL 529 NSCLC; > 100 µM in the experiment with IGROV1 ovarian; 36.3 µM with U251 CNS; 55.4 µM in the experiment on OVCAR-3 ovarian.

With `COCC1C(=O)c2cc3c(cc2C12C=CC1(C=C2)OCCO1)OCO3` (stereo not given), the TGI in the experiment on KM20L2 colon was determined as 22.7 µM; in the experiment on A549 NSCLC it was 28.9 µM; with LXFL 529 NSCLC, 9.82 µM; in the experiment on IGROV1 ovarian, 29.4 µM; in the experiment with U251 CNS, 14 µM; with OVCAR-3 ovarian, 26.5 µM. This compound displayed a TGI with UACC-257 melanoma of 32.6 µM.

With `CNc1nnnn1C1OC(CO)C(O)C1O` (stereo not given), the TGI in the experiment with KM20L2 colon, in the experiment with A549 NSCLC, in the experiment with LXFL 529 NSCLC, with IGROV1 ovarian, in the experiment on U251 CNS and with OVCAR-3 ovarian was > 100 µM throughout. In addition, the TGI with UACC-257 melanoma was > 100 µM.

Consider `O=S(=O)(O)c1ccc(Cl)cc1.[Cd]`, for which the GI50 in the experiment on A549 NSCLC is > 100 µM; in the experiment with SNB-19 CNS it was > 100 µM; in the experiment on NCI/ADR-RES ovarian it was > 100 µM; with IGROV1 ovarian it was 20.9 µM; with U251 CNS, 34 µM; in the experiment on PC-3 prostate, 25.2 µM. Further, the figures for the GI50 with OVCAR-3 ovarian and with UACC-257 melanoma were 18.5 µM and 29.6 µM, respectively. The TGI was > 100 µM in the experiment on A549 NSCLC; > 100 µM with SNB-19 CNS; > 100 µM with NCI/ADR-RES ovarian; 43.2 µM with IGROV1 ovarian; > 100 µM with U251 CNS; 66.3 µM in the experiment on PC-3 prostate. Moreover, the TGI in the experiment with OVCAR-3 ovarian turned out to be 44.4 µM; with UACC-257 melanoma, 78.8 µM.

Consider `C=C1C(=O)O[C@H]2[C@H]1CC/C(C=Nc1ccc(C(F)(F)F)cc1N)=C\CC[C@@]1(C)O[C@@H]21`, for which the GI50 with A549 NSCLC is 17.2 µM; in the experiment with SNB-19 CNS, 11.5 µM; in the experiment on NCI/ADR-RES ovarian it was 8.09 µM; in the experiment on IGROV1 ovarian, 3.36 µM; in the experiment with U251 CNS, 10.9 µM; with PC-3 prostate, 9.08 µM. Besides, the figures for the GI50 in the experiment on OVCAR-3 ovarian and in the experiment on UACC-257 melanoma were 2.75 µM and 12.3 µM, respectively. In addition, the TGI was determined as 32.7 µM with A549 NSCLC; 26.2 µM in the experiment with SNB-19 CNS; 45.2 µM in the experiment with NCI/ADR-RES ovarian; 18.4 µM in the experiment on IGROV1 ovarian; 23.9 µM with U251 CNS; 23.4 µM in the experiment on PC-3 prostate. The TGI stood at 11.3 µM in the experiment with OVCAR-3 ovarian and 25.8 µM in the experiment with UACC-257 melanoma.

As to `COc1ccc2c(CC(=O)O)cc(=O)oc2c1`, the TGI in the experiment on A549 NSCLC, in the experiment with SNB-19 CNS, in the experiment with NCI/ADR-RES ovarian, in the experiment with IGROV1 ovarian, with U251 CNS and in the experiment on PC-3 prostate was > 100 µM each time. Besides, the TGI in the experiment on OVCAR-3 ovarian and with UACC-257 melanoma was > 100 µM throughout.

In the case of `CN(CCCCCl)P(=O)(OCc1ccc([N+](=O)[O-])o1)C(F)(F)c1ccc(CC(=O)N[C@@H](CC(=O)O)C(=O)N[C@@H](Cc2ccc(C(F)(F)P(=O)(OCc3ccc([N+](=O)[O-])o3)N(C)CCCCCl)cc2)C(N)=O)cc1` (stereo not given in full), the GI50 is > 100 µM in the experiment with A549 NSCLC; 54.9 µM in the experiment on SNB-19 CNS; > 100 µM in the experiment with NCI/ADR-RES ovarian; 45.7 µM with IGROV1 ovarian; 50.8 µM with U251 CNS; 80.5 µM in the experiment on PC-3 prostate. In addition, the GI50 in the experiment with OVCAR-3 ovarian was 37.6 µM; with UACC-257 melanoma it was > 100 µM. Further, the TGI with A549 NSCLC, in the experiment on SNB-19 CNS, with NCI/ADR-RES ovarian, in the experiment on IGROV1 ovarian, with U251 CNS and in the experiment on PC-3 prostate was > 100 µM throughout. Further, the TGI with OVCAR-3 ovarian and in the experiment with UACC-257 melanoma was > 100 µM each time.

Take `O=C(Nc1ccc(Cl)c(Cl)c1)C(=O)C(C1OC(=O)c2ccccc21)[N+](=O)[O-]` (stereo not given): the TGI with A549 NSCLC, in the experiment with SNB-19 CNS, in the experiment on NCI/ADR-RES ovarian, in the experiment with IGROV1 ovarian, in the experiment with U251 CNS and in the experiment on PC-3 prostate was > 100 µM in each case. In addition, the TGI with OVCAR-3 ovarian and in the experiment with UACC-257 melanoma was > 100 µM in each case.

`CCOCCc1c(O)nc(SC)[nH]c1=O`: the GI50 with A549 NSCLC, in the experiment with SNB-19 CNS, with NCI/ADR-RES ovarian, in the experiment with IGROV1 ovarian, with U251 CNS and in the experiment on PC-3 prostate was > 100 µM each time. For the same compound, the GI50 in the experiment on OVCAR-3 ovarian and in the experiment with UACC-257 melanoma was > 100 µM each time. Further, the TGI in the experiment with A549 NSCLC, in the experiment with SNB-19 CNS, in the experiment with NCI/ADR-RES ovarian, with IGROV1 ovarian, with U251 CNS and in the experiment with PC-3 prostate was > 100 µM in each case. Further, the TGI in the experiment on OVCAR-3 ovarian and with UACC-257 melanoma was > 100 µM throughout.

`Cc1ccc(Cl)cc1Nc1nc(C(F)(F)F)ccc1C(=O)N/N=C/c1c(Cl)cccc1Cl`: the GI50 with A549 NSCLC was 1.5 µM; with SNB-19 CNS, 1.75 µM; in the experiment with NCI/ADR-RES ovarian, 0.522 µM; with IGROV1 ovarian it was 0.994 µM; in the experiment with U251 CNS it was 0.471 µM; with PC-3 prostate, 0.554 µM. For the same compound, the GI50 in the experiment with OVCAR-3 ovarian was 0.285 µM; in the experiment on UACC-257 melanoma, 2.49 µM. Moreover, the TGI is > 100 µM in the experiment with A549 NSCLC; > 52.2 µM in the experiment with SNB-19 CNS; 6.77 µM in the experiment with NCI/ADR-RES ovarian; > 68.9 µM in the experiment on IGROV1 ovarian; 5.78 µM in the experiment with U251 CNS; > 34.3 µM with PC-3 prostate. Besides, the TGI turned out to be 2.7 µM in the experiment on OVCAR-3 ovarian and 7.69 µM in the experiment with UACC-257 melanoma.

On to `O=C(/C=C/c1ccccn1)c1ccccc1O`, for which the GI50 is 5.37 µM in the experiment on A549 NSCLC; 3.21 µM with SNB-19 CNS; 2.87 µM in the experiment with NCI/ADR-RES ovarian; 1.76 µM in the experiment on IGROV1 ovarian; 2.02 µM in the experiment on U251 CNS; 2.92 µM with PC-3 prostate. The results for the GI50 in the experiment on OVCAR-3 ovarian and with UACC-257 melanoma were 1.71 µM and 2.22 µM, respectively. The TGI worked out at 20.4 µM in the experiment with A549 NSCLC; 13.4 µM in the experiment on SNB-19 CNS; 9.07 µM in the experiment on NCI/ADR-RES ovarian; 3.36 µM with IGROV1 ovarian; 5.78 µM in the experiment with U251 CNS; 8.29 µM with PC-3 prostate. In addition, the TGI in the experiment with OVCAR-3 ovarian stood at 3.5 µM; in the experiment on UACC-257 melanoma, 5.71 µM.

`CC(C)(C)C(=O)OCOP(=O)(OCOC(=O)C(C)(C)C)C1CCCN(OC(=O)c2ccccc2)C1=O` (stereo not given): the GI50 with A549 NSCLC is 2.02 µM; in the experiment on SNB-19 CNS, 1.51 µM; in the experiment with NCI/ADR-RES ovarian it was 0.721 µM; with IGROV1 ovarian, 0.657 µM; in the experiment with U251 CNS, 0.919 µM; in the experiment on PC-3 prostate it was 4.38 µM. For the same compound, the GI50 in the experiment on OVCAR-3 ovarian was 1.24 µM; in the experiment with UACC-257 melanoma, 3.43 µM. For the same compound, the TGI was 25.2 µM in the experiment on A549 NSCLC; 17 µM with SNB-19 CNS; 7.76 µM in the experiment on NCI/ADR-RES ovarian; 3.08 µM with IGROV1 ovarian; 10.5 µM in the experiment on U251 CNS; > 100 µM in the experiment on PC-3 prostate. Also, the TGI stood at 7.28 µM with OVCAR-3 ovarian and 22.4 µM in the experiment with UACC-257 melanoma.

Regarding `COc1ccc(C(=O)C(c2ccc(OC)cc2)C2C(=O)Oc3ccccc32)cc1` (stereo not given), the GI50 with KM20L2 colon, in the experiment with A549 NSCLC, in the experiment on LXFL 529 NSCLC, in the experiment with IGROV1 ovarian, in the experiment with OVCAR-3 ovarian and in the experiment on UACC-257 melanoma was > 100 µM throughout. The TGI with KM20L2 colon, in the experiment with A549 NSCLC, in the experiment on LXFL 529 NSCLC, in the experiment on IGROV1 ovarian, in the experiment on OVCAR-3 ovarian and with UACC-257 melanoma was > 100 µM each time.

As for `O=C(CCCCCCC(=O)N/N=C/c1ccc(N(c2ccccc2)c2ccccc2)cc1)NO`, the GI50 in the experiment on A549 NSCLC was 2.99 µM; with SNB-19 CNS, 3.35 µM; with NCI/ADR-RES ovarian, 3.07 µM; in the experiment with IGROV1 ovarian, 0.505 µM; in the experiment on U251 CNS it was 1.75 µM; in the experiment with PC-3 prostate, 2.39 µM. For the same compound, the GI50 was 1.45 µM in the experiment on OVCAR-3 ovarian and 0.39 µM in the experiment with UACC-257 melanoma. For the same compound, the TGI in the experiment with A549 NSCLC was 9.51 µM; in the experiment with SNB-19 CNS it was 15.9 µM; in the experiment with NCI/ADR-RES ovarian, 20.5 µM; in the experiment with IGROV1 ovarian, 2.74 µM; with U251 CNS, 4.46 µM; in the experiment with PC-3 prostate, 10.7 µM. The results for the TGI in the experiment with OVCAR-3 ovarian and with UACC-257 melanoma were 4.58 µM and 1.57 µM, respectively.

For `COc1ccc(S(=O)(=O)N2CCN(C(=O)OCc3ccccc3)CC2C(=O)NO)cc1` (stereo not given), the GI50 with A549 NSCLC is > 25 µM; in the experiment with SNB-19 CNS, > 25 µM; with NCI/ADR-RES ovarian it was > 25 µM; with IGROV1 ovarian, 4.09 µM; in the experiment with U251 CNS, > 25 µM; with PC-3 prostate, 17.6 µM. For the same compound, the GI50 was 12.1 µM in the experiment with OVCAR-3 ovarian and > 25 µM in the experiment with UACC-257 melanoma. Moreover, the TGI in the experiment on A549 NSCLC, with SNB-19 CNS, with NCI/ADR-RES ovarian, in the experiment on IGROV1 ovarian, with U251 CNS and with PC-3 prostate was > 25 µM throughout. The TGI in the experiment with OVCAR-3 ovarian and with UACC-257 melanoma was > 25 µM each time.
